# From patent publication US9765069B2, “Antimicrobial compounds” (OXFORD UNIVERSITY INNOVATION LIMITED, priority 2012, dated 2017)
# How the values were obtained:
# [1] = test system: S1; assay: MIC determination (bacteria), strain S1; format: cell-based, S. aureus; settings: 2-fold broth dilution; for MIC: Staphylococcus aureus
# Procedure: (§1) MIC determination (bacteria); MICs were determined based on Clinical and Laboratory Standards Institute (CLSI) methodology (Methods for dilution antimicrobial susceptibility tests for bacteria that grow aerobically; Approved Standard—seventh edition. 2006, M7-A7, CLSI, Wayne Pa.) by a 2-fold broth dilution technique in Mueller Hinton (pH7.4 Biorad). For S. pneumoniae, the medium was supplemented with 2.5% laked horse blood. For H. influenzae, the medium was haemophilus test medium (H.T.M.). Overnight cultures were diluted to obtain the final inoculum of 10^5 cfu/well. Incubation was 37° C. overnight in ambient air. The MIC was defined as the lowest concentration which inhibited all visual growth and expressed in μg/ml. For each bacterial species, all of the molecules were tested in the same experiment in order to give a head-to-head comparison.
# [2] = test system: S26; assay: MIC determination (bacteria), strain S26; format: cell-based, S. aureus; settings: 2-fold broth dilution; for MIC: Staphylococcus aureus
# Procedure: as §1
# [3] = test system: S4; assay: MIC determination (bacteria), strain S4; format: cell-based, S. aureus; settings: 2-fold broth dilution; for MIC: Staphylococcus aureus
# Procedure: as §1
# [4] = test system: S2 (S. aureus 2, MRSA in vivo); assay: MIC determination (bacteria), strain S2; format: cell-based; settings: 2-fold broth dilution; for MIC: Staphylococcus aureus, MRSA
# Procedure: as §1
# [5] = test system: E1; assay: MIC determination (bacteria), strain E1; format: cell-based, enterococcus; settings: 2-fold broth dilution; for MIC: Enterococcus
# Procedure: as §1
# [6] = test system: E2; assay: MIC determination (bacteria), strain E2; format: cell-based, enterococcus; settings: 2-fold broth dilution; for MIC: Enterococcus
# Procedure: as §1
# [7] = test system: P1; assay: MIC determination (bacteria), strain P1; format: cell-based, S. pneumoniae; settings: 2-fold broth dilution; for MIC: Streptococcus pneumoniae
# Procedure: as §1
# [8] = test system: P9; assay: MIC determination (bacteria), strain P9; format: cell-based, S. pneumoniae; settings: 2-fold broth dilution; for MIC: Streptococcus pneumoniae
# Procedure: as §1
# [9] = test system: P9B; assay: MIC determination (bacteria), strain P9B; format: cell-based, S. pneumoniae; settings: 2-fold broth dilution; for MIC: Streptococcus pneumoniae
# Procedure: as §1
# [10] = test system: H3; assay: MIC determination (bacteria), strain H3; format: cell-based, H. influenzae; settings: haemophilus test medium; for MIC: Haemophilus influenzae
# Procedure: as §1
# [11] = test system: H4; assay: MIC determination (bacteria), strain H4; format: cell-based, H. influenzae; settings: haemophilus test medium; for MIC: Haemophilus influenzae
# Procedure: as §1
# [12] = test system: S. aureus membrane; assay: In vitro activity in depolarization of S. aureus membrane; format: cell-based; settings: read-out: DEP (IC50)
# Source text: (§2) These properties can be determined according to techniques that are well known in the art.
# [13] = test system: mammalian_red blood cell membrane; assay: In vitro mammalian red blood cell membrane lysis activity; format: cell-based; settings: Active or inactive at 100 μM
# Source text: as §2
# [14] = test system: human embryonic kidney 293 cells; assay: in vitro toxicities against human embryonic kidney 293 cells; format: cell-based; settings: human embryonic kidney 293 cells
# Source text: as §2
# [15] = test system: human peripheral blood cells; assay: in vitro toxicities human peripheral blood cells; format: cell-based; settings: human peripheral blood cells
# Source text: as §2
Compound,MIC S1 ([1]; Table 2) [µg/mL],MIC S26 ([2]; Table 2) [µg/mL],MIC S4 ([3]; Table 2) [µg/mL],MIC S2 ([4]; Table 2) [µg/mL],MIC E1 ([5]; Table 2) [µg/mL],MIC E2 ([6]; Table 2) [µg/mL],MIC P1 ([7]; Table 2) [µg/mL],MIC P9 ([8]; Table 2) [µg/mL],MIC P9B ([9]; Table 2) [µg/mL],MIC H3 ([10]; Table 2) [µg/mL],MIC H4 ([11]; Table 2 and its footnote f) [µg/mL],MIC S1 ([1]; Table 1) [µg/mL],MIC S26 ([2]; Table 1) [µg/mL],MIC S4 ([3]; Table 1) [µg/mL],MIC S2 ([4]; Table 1) [µg/mL],MIC E1 ([5]; Table 1) [µg/mL],MIC E2 ([6]; Table 1) [µg/mL],MIC P1 ([7]; Table 1) [µg/mL],MIC P9 ([8]; Table 1) [µg/mL],MIC P9B ([9]; Table 1) [µg/mL],other results
O=C1CCN(C(=O)c2ccccc2)C(=O)C1=C(O)CCCCC1CCCCC1 [19c],1,2,2,2,2,2,1,1,4,16,8,,,,,,,,,,
O=C1CCN(C(=O)c2ccccc2)C(=O)/C1=C(\O)CCc1ccc(-c2ccccc2C(F)(F)F)o1 [19e],4,4,4,4,2,2,2,2,8,>64,16,,,,,,,,,,
CCCCCCCC=CC(=O)N1C(=O)C(=C(C)O)C(=O)C1CC(C)C (stereo not drawn) [23a],,,,,,,,,,,,8,16,8,8,8,4,2,1,4,"MIC H3 ([10]; Table 1): 64 µg/mL; MIC H4 ([11]; Table 1): 4 µg/mL; IC50 [12]: 88 µM; RBC membrane lysis activity (active/inactive) [13]: Inactive^d; Hek293 (LD50, μM) [14]: 90.9 µM; PMBC (LD50, μM) [15]: 90.9 µM"
CCCCCCCC=CC(=O)N1C(=O)C(=C(O)CCC)C(=O)C1CC(C)C (stereo not drawn) [23b],,,,,,,,,,,,<0.06,0.5,0.25,0.25,0.25,<0.06,0.25,0.12,1,"MIC H3 ([10]; Table 1): >64 µg/mL; MIC H4 ([11]; Table 1): 2 µg/mL; IC50 [12]: 49.5 µM; RBC membrane lysis activity (active/inactive) [13]: Inactive^d; Hek293 (LD50, μM) [14]: 90.9 µM; PMBC (LD50, μM) [15]: 90.9 µM"
CCCCCCCC=CC(=O)N1C(=O)C(=C(O)CCCCC)C(=O)C1CC(C)C (stereo not drawn) [23c],,,,,,,,,,,,0.25,0.5,0.5,0.5,0.25,0.12,<0.06,<0.06,2,"MIC H3 ([10]; Table 1): >64 µg/mL; IC50 [12]: 19.6 µM; RBC membrane lysis activity (active/inactive) [13]: Inactive^d; Hek293 (LD50, μM) [14]: 30.3 µM; PMBC (LD50, μM) [15]: 30.3 µM"
CCCCCCCCCCC(O)=C1C(=O)C(CCSC)N(C(C)=O)C1=O (stereo not drawn) [24a],,,,,,,,,,,,0.5,8,4,2,0.5,0.5,0.5,0.25,2,MIC H3 ([10]; Table 1): 8 µg/mL; MIC H4 ([11]; Table 1): 4 µg/mL
CCCCCC(O)=C1C(=O)C(CCSC)N(C(=O)C2CCCCC2)C1=O (stereo not drawn) [24d],,,,,,,,,,,,2,4,2,4,2,2,2,2,4,MIC H3 ([10]; Table 1): 32 µg/mL; MIC H4 ([11]; Table 1): 4 µg/mL
CCCCCCCCCCCCCC(O)=C1C(=O)CCN(C(=O)c2ccccc2)C1=O [25c],,,,,,,,,,,,2,4,1,2,2,1,1,1,8,MIC H3 ([10]; Table 1): >64 µg/mL; MIC H4 ([11]; Table 1): 32 µg/mL
CCCCCCC(=O)N1CC(=O)C(=C(O)CC2CC3CCC2C3)C1=O (stereo not drawn) [27a],1,4,2,2,1,2,1,0.5,4,4,1,,,,,,,,,,"IC50 [12]: > 100 µM; RBC membrane lysis activity (active/inactive) [13]: Inactive^d; Hek293 (LD50, μM) [14]: 90.9 µM; PMBC (LD50, μM) [15]: 90.9 µM"
CCCCCCC(=O)N1CC(=O)C(=C(O)CC2CCCCC2)C1=O [27b],2,4,4,4,2,2,1,0.5,2,4,0.5,,,,,,,,,,
CCCC(=O)N1CC(=O)C(=C(O)CC23CC4CC(CC(C4)C2)C3)C1=O [27j],16,16,16,16,8,8,4,4,4,16,4,,,,,,,,,,
CCCCCCC(=O)N1CC(=O)/C(=C(/O)CO[C@H]2C[C@@H](C)CC[C@@H]2C(C)C)C1=O [27n],,,,,,,,,,,,,,,,,,,,,MIC ([1]; Table 2): > 64 µg/mL; MIC ([2]; Table 2): > 64 µg/mL; MIC ([3]; Table 2): > 64 µg/mL; MIC ([4]; Table 2): > 64 µg/mL; MIC ([5]; Table 2): 8 µg/mL; MIC ([6]; Table 2): 2 µg/mL; MIC ([7]; Table 2): 0.5 µg/mL; MIC ([8]; Table 2): 0.5 µg/mL; MIC ([9]; Table 2): 8 µg/mL; MIC ([10]; Table 2): > 64 µg/mL; MIC ([11]; Table 2 and its footnote f): 2 µg/mL
CCCC(=O)N1CC(=O)C(=C(O)CCCCC2CCCCC2)C1=O [27o],4,8,16,4,4,2,0.5,0.5,4,8,2,,,,,,,,,,
Cc1ccccc1C(=O)N1CC(=O)C(=C(O)CCCCC2CCCCC2)C1=O [27s],16,16,16,16,8,8,2,2,16,32,4,,,,,,,,,,
CCCCCCC(=O)N1CC(=O)C(=C(O)CCCCc2ccccc2)C1=O [28b],2,4,2,2,2,1,0.5,0.25,2,8,2,,,,,,,,,,
CCCCCCC(=O)N1CC(=O)C(=C(O)CCc2ccc(SC)cc2)C1=O [28d],4,32,16,8,1,2,0.5,0.5,4,4,1,,,,,,,,,,
CSCCC1C(=O)C(=C(O)CC23CC4CC(CC(C4)C2)C3)C(=O)N1C(C)=O (stereo not drawn) [31d],16,32,16,32,16,16,8,8,8,32,4,,,,,,,,,,
CSCCC1C(=O)/C(=C(/O)CC(C)(C)CC(=O)OCCC23CC4CC(CC(C4)C2)C3)C(=O)N1C(C)=O (stereo not drawn) [31i],,,,,,,,,,,,,,,,,,,,,MIC ([1]; Table 2): 8 µg/mL; MIC ([2]; Table 2): > 64 µg/mL; MIC ([3]; Table 2): 16 µg/mL; MIC ([4]; Table 2): 8 µg/mL; MIC ([5]; Table 2): 2 µg/mL; MIC ([6]; Table 2): 1 µg/mL; MIC ([7]; Table 2): 2 µg/mL; MIC ([8]; Table 2): 1 µg/mL; MIC ([9]; Table 2): 4 µg/mL; MIC ([10]; Table 2): > 64 µg/mL; MIC ([11]; Table 2 and its footnote f): 8 µg/mL
